Experimental data: patent US10722519B2, “Aerosol fluoroquinolone formulations for improved pharmacokinetics” (priority 2008, dated 2020)
Where two headings read alike, the source gives them in different places.

What was measured:
[1] = Aerosol and IV levofloxacin in saline in normal healthy volunteers and CF subjects (serum, sputum, deconvolution); settings: for Mean projected Cmax in the ELF: CF patients, ELF volume 25 ml; for AUC / Cmax / half-life / clearance: human, in vivo; for clearance: Total levofloxacin clearance, serum
Method: Safety, tolerability, and pharmacokinetics (serum, sputum, and urinary excretion) data were collected after each dose.
A weight of 1/y-observed was applied in the regression. Goodness of fit was assessed by the minimized objective function and inspection of weighted residual plots. […] Briefly, this analysis compares the appearance and elimination of drug following aerosol and intravenous doses to determine the amount of drug remaining in the lung (absorption compartment) over time. To estimate concentrations of drug in lung, amounts were divided by estimates of the epithelial lung fluid (ELF) volume (25 ml) for each subject. Noncompartmental pharmacokinetic analysis was subsequently applied to these projected concentrations of drug in the lung to determine values for AUC.
The area under the sputum concentration vs. time curve was estimated using the linear trapezoidal rule.

[2] = Sprague-Dawley, rat, in vivo, 10 mg/kg
[3] = in vivo; settings: Sprague-Dawley, rat, 10 mg/kg
[4] = Standard kill-curve and in vitro hollow fiber assay; assay type: cell-based; settings: high concentrations, 0.018-fold-[…] the MIC evaluated
From the text: Fluoroquinolone efficacy in humans, animals and in vitro models of infection is linked to AUC:MIC ratio and Cmax:MIC ratio.

[5] = Mouse lung homogenate pharmacokinetics; settings: IP, 20 mg/kg normalized to 60 mg/kg
Method: Mice were sacrificed at 0.08, 0.16, 0.25, 0.5, 0.75, 1.0, 2.0, 3.0, and 4.0 h after dosing and their lungs collected. […] Analytical standards (0.05 to 100 mg/L) were prepared in fresh mouse lung homogenate collected from untreated animals. […] Aliquots of the supernatant (25 μl) were injected directly onto the HPLC using a temperature-controlled autoinjector set at 10° C. Standard curves were constructed of the peak area versus standard concentration, and the data were fit using weighted linear regression (Microsoft Excel, Seattle, Wash.). […] The lung pharmacokinetic parameters were determined using WinNonlin (Pharsight, Mountain View, Calif.).

[6] = in vivo; settings: Sprague-Dawley, rat, 10 mg/kg; remark: listed apart in the source
[7] = test system: P. aeruginosa ATCC 27853; assay: Acute mouse lung infection model; settings: mice, 2 doses over 24 h
Method: Aerosol Administration of antibiotics: Antibiotics were aerosolized using a microspray aerosol device (MicroSprayer Model IA-C, PennCentury, Philadelphia, Pa.) attached to a FMJ-250 High-Pressure Syringe (PennCentury, Philadelphia, Pa.). […] For administration, each mouse was anesthetized (5% isoflurane in oxygen running at 4 L/min) and positioned securely at a 45-50° angle by the upper teeth, the microspray aerosol tip was inserted to the bifurcation and a 50 μl volume was administered.
The bacterial suspensions were adjusted to approximately 1-6×10^5 CFU/ml by correlation of the absorbance at 600 nm with predetermined plate counts. […] On day 4, mice were infected by intratracheal (IT) instillation of 0.05 ml of inoculum using a curved oral gavage tip attached to a 1 ml syringe. […] Antibiotics were aerosolized using a microspray aerosol device. All infections and aerosol treatments were performed under isoflurane anesthesia (5% isoflurane in oxygen running at 4 L/min). An untreated group of mice (n=8) was sacrificed prior to the initiation of treatment to determine baseline bacterial counts. […] The lungs were removed aseptically and homogenized (Pro200 homogenizer, Pro Scientific, Monroe, Conn.) in 1 ml of sterile saline. Serial 10-fold dilutions of the homogenized lung were plated on Mueller-hinton agar (MHA), and colonies counted.
In addition, due to the need for anesthesia for treatment, the maximum number of daily doses was limited to two.

[8] = clinical; settings: human, in vivo
[9] = clinical
Method: This analysis compares the appearance and elimination of drug following aerosol and intravenous doses to determine the amount of drug remaining in the lung (absorption compartment) over time. To estimate concentrations of drug in lung, amounts were divided by estimates of the epithelial lung fluid (ELF) volume (25 ml) for each subject. Non-compartmental pharmacokinetic analysis was subsequently applied to these projected concentrations of drug in the lung to determine AUCs.

[10] = rat, 10 mg/kg
[11] = in vivo; settings: male, Sprague-Dawley, rat, in vivo, 10 mg/kg
Method: This example relates to aerosol and intravenous administration of fluoroquinolones in saline. A rat pharmacokinetic model was used to compare intravenous and pulmonary administration of fluoroquinolones. […] Doses were administered via the lateral tail vein, or to the lung just above the tracheal bifurcation using a micro-spray aerosol device (Penn Century, Philadelphia, Pa.).
Approximately 0.3 ml blood samples were taken from 2-6 rats at each timepoint via an indwelling jugular vein cannula, and collected in lithium heparin tubes. Bronchial alveolar lavage (BAL) and lung tissue were collected following euthanasia. […] Sample concentrations were determined against a standard curve.

[12] = serum, 5 minute IV infusion 50 mg, single healthy volunteer

C[C@H]1COc2c(N3CCN(C)CC3)c(F)cc3c(=O)c(C(=O)O)cn1c23 [Levofloxacin, levofloxacin]
Mean projected Cmax in the ELF ([1]; high dose (RDD 40 mg)): > 1000 µg/mL | Mean projected Cmax in the ELF ([1]; low dose (RDD 20 mg)): exceeded 500 μg/ml | time for which 50% of the lung dose remains in the lung ([1]; CF subjects, aerosol in saline, serum deconvolution): at least 0.5 hours | peak sputum concentrations higher than 750 mg oral dose ([1]; aerosol doses as low as 20 mg): 10 fold | AUC ([1]; 20 mg): 67100 ng·h/mL | Cmax ([1]; 20 mg): 86.2 µg/mL | half-life ([1]; 20 mg): 54 min | AUC ([1]; 40 mg): 171000 ng·h/mL | Cmax ([1]; 40 mg): 212 µg/mL | half-life ([1]; 40 mg): 78 min | clearance ([1]; 50 mg, CF subjects): 235 mL/min | clearance ([1]; 50 mg, NHV subjects): 287 mL/min | AUC ([1]; iv, 50 mg): 2500 ng·h/mL | Cmax ([1]; iv, 50 mg): 0.8 µg/mL | AUC ([1]; po, 750 mg): 93400 ng·h/mL | Cmax ([1]; po, 750 mg): 8.7 µg/mL | F, % from Lung vs IV [2]: 97% | CL/F ([3]; inhaled or intranasal): 47.2 mL/min/kg | Cmax ([3]; inhaled or intranasal): 6.01 µg/mL | MRT ([3]; inhaled or intranasal): 42.6 min | bioavailability ([3]; inhaled or intranasal): 97.4% | half-life ([3]; inhaled or intranasal): 31.2 min | Cmax ([3]; iv): 5.54 µg/mL | MRT ([3]; iv): 42 min | half-life ([3]; iv): 29.4 min | time to reach maximum levels of killing [4]: 10 to 20 min | AUC (Normalized to 60 mg/kg) [5]: 12.3 mg·h/kg | Cmax (Normalized to 60 mg/kg) [5]: 18.6 mg/kg | MRT ([6]; inhaled or intranasal): 42 min | half-life ([6]; inhaled or intranasal): 30 min | MRT ([6]; iv): 42 min | half-life ([6]; iv): 30 min | reductions in lung bacterial counts ([7]; systemic (IP) 32 mg/kg): 0.65 log CFU | reductions in lung bacterial counts ([7]; systemic (IP) 62.5 mg/kg): 2.7 log CFU | AUC(0-inf) ([8]; iv, 50 mg, Serum AUC(0-inf)): 3910 ng·h/mL | Cmax ([8]; iv, 50 mg, Serum Cmax): 2.55 µg/mL | half-life ([8]; iv, 50 mg, Serum t1/2, IV 50 mg): 353 min | AUC(0-inf) ([8]; iv, 50 mg, Sputum AUC(0-inf)): 5700 ng·h/mL | Cmax ([8]; iv, 50 mg, Sputum Cmax): 1.05 µg/mL | half-life ([8]; po, 750 mg): 402 min | AUC(0-inf) ([8]; po, 750 mg, Serum AUC(0-inf)): 76600 ng·h/mL | Cmax ([8]; po, 750 mg, Serum Cmax): 7.3 µg/mL | half-life ([8]; po, 750 mg, Serum t1/2, Oral 750 mg, CF patients): 456 min | AUC(0-inf) ([8]; po, 750 mg, Sputum AUC(0-inf)): 93400 ng·h/mL | Cmax ([8]; po, 750 mg, Sputum Cmax): 8.7 µg/mL | Vd ([9]; human, in vivo, iv): 135 L | clearance ([9]; human, in vivo, iv): 266 mL/min | A [9, 12]: 2.05 mg/L | B [9, 12]: 0.30 mg/L | V2 [9, 12]: 114.03 L | Plasma MAT ([10]; Sprague-Dawley, in vivo): 0.01 h | Plasma CL/F ([10]; IV, mean (+/- SD)): 2.81 (±0.54) L/hr/kg | F, % from Lung vs IV [11]: 97% | MAT [11]: 0 h | AUC ([11]; inhaled or intranasal): 3000 ng·h/mL | AUC(0-inf) ([11]; inhaled or intranasal): 3700 ng·h/mL | MRT ([11]; inhaled or intranasal): 42 min | half-life ([11]; inhaled or intranasal): 30 min | AUC ([11]; iv): 1600 ng·h/mL | AUC(0-inf) ([11]; iv): 3800 ng·h/mL | MRT ([11]; iv): 42 min | half-life ([11]; iv): 30 min
